# Data from patent EP0771196B1, “EXCITATORY AMINO ACID RECEPTOR ANTAGONISTS” (ELI LILLY AND COMPANY, priority 1994, dated 1996).
# Marks after values point to notes of the source that are not given here.
# Tested on: metabotropic glutamate receptors
# Experiment: Displacement of 1S,3R-ACPD-sensitive [3H]glutamate binding to rat brain cell membranes
# Conditions: crude membranes of rat forebrain; 10 µM compound
# Procedure: The binding of [^3H]glutamate was conducted with crude membranes of rat forebrain as described by Schoepp and True. Schoepp and True, Neuroscience Lett., 145, 100-104 (1992) and True and Schoepp, Society for Neuroscience Abstracts, 19, 470 (1993). IC50 values for the inhibition of [^3H]glutamate binding, or the percent displacement of [^3H]glutamate binding at a 10 µM concentration, of the formula I compound, is shown in Table II.
row,SMILES,ACPD-Sensitive [^3H]Glutamate Binding % Displacement at 10 µM
1,"NC(Cc1ccccc1)(C(=O)O)C1CC1C(=O)O (stereo not drawn) [Example 1, 2SR- and 2RS-2-amino-2-(1SR,2SR-2-carboxycyclopropan-1-yl)-3-phenylpropanoic acid]",(61%)
2,"NC(Cc1ccc(C(=O)O)cc1)(C(=O)O)C1CC1C(=O)O (stereo not drawn) [Example 42, 2SR- and 2RS-2-amino-2-(1SR,2SR-2-carboxycyclopropan-1-yl)-3-((4-carboxy)phenyl)propanoic acid]",(39%)
3,"NC(C(=O)O)(C1Cc2ccccc2C1)C1CC1C(=O)O (stereo not drawn) [Example 43, 2SR- and 2RS-2-amino-2-(1SR,2SR-2-carboxycyclopropan-1-yl)-2-(indan-2-yl)ethanoic acid]",(32%)
4,"NC(CCC1CCNCC1)(C(=O)O)C1CC1C(=O)O (stereo not drawn) [Example 45, 2SR- and 2RS-2-amino-2-(1SR,2SR-2-carboxycyclopropan-1-yl)-2-(piperidin-4-yl)butanoic acid]",(42%)
5,"N[C@@](CC(c1ccccc1)c1ccccc1)(C(=O)O)[C@@H]1C[C@H]1C(=O)O [Example 65, 2R 2-amino-2-(1R,2R-2-carboxycyclopropan-1-yl)-4,4-diphenylbutanoic acid]",(45%)
6,"N[C@](CC(c1ccccc1)c1ccccc1)(C(=O)O)[C@@H]1C[C@H]1C(=O)O [Example 66, 2S-2-amino-2-(1R,2R-2-carboxycyclopropan-1-yl)-4,4-diphenylbutanoic acid]",(36%)

# Same assay, conditions: crude membranes of rat forebrain; 10 µM compound; 10 µM
row,SMILES,ACPD-Sensitive [^3H]Glutamate Binding % Displacement at 10 µM
1,"Cc1cccc(CCC(N)(C(=O)O)C2CC2C(=O)O)c1 [Example 67, 2R-2-amino-2-(1S,2S-2-carboxycyclopropan-1-yl)-4-(3-methylphenyl)butanoic acid]",(22%)^b

# Same assay, conditions: crude membranes of rat forebrain; inhibition of [3H]glutamate binding
row,SMILES,IC50 [nM]
1,"NC(Cc1cccc2c1Oc1ccccc1C2)(C(=O)O)[C@H]1C[C@@H]1C(=O)O (mixture of isomers) [Example 35, 2SR- and 2RS-2-amino-2-(1SR,2SR-2-carboxycyclopropan-1-yl)-3-(dibenzopyran-4-yl)propanoic acid]",9
2,"NC(CCc1ccccc1)(C(=O)O)C1CC1C(=O)O (stereo not drawn) [Example 2, 2SR- and 2RS-2-amino-2-(1SR,2SR-2-carboxycyclopropan-1-yl)-4-phenylbutanoic acid]",320
3,"NC(CCCc1ccccc1)(C(=O)O)C1CC1C(=O)O (stereo not drawn) [Example 3, 2SR- and 2RS-2-amino-2-(1SR,2SR-2-carboxycyclopropan-1-yl)-5-phenylpentanoic acid]",630
4,"NC(CCCCc1ccccc1)(C(=O)O)C1CC1C(=O)O (stereo not drawn) [Example 4, 2SR- and 2RS-2-amino-2-(1SR,2SR-2-carboxycyclopropan-1-yl)-6-phenylhexanoic acid]",2300
5,"NC(CC(c1ccccc1)c1ccccc1)(C(=O)O)C1CC1C(=O)O (stereo not drawn) [Example 5, 2SR- and 2RS-2-amino-2-(1SR,2SR-2-carboxycyclopropan-1-yl)-4,4-diphenylbutanoic acid]",76
6,"NC(CCC(c1ccccc1)c1ccccc1)(C(=O)O)C1CC1C(=O)O (stereo not drawn) [Example 6, 2SR- and 2RS-2-amino-2-(1SR,2SR-2-carboxycyclopropan-1-yl)-5,5-diphenylpentanoic acid]",7100
7,"NC(CCCC(c1ccccc1)c1ccccc1)(C(=O)O)C1CC1C(=O)O (stereo not drawn) [Example 7, 2SR- and 2RS-2-amino-2-(1SR,2SR-2-carboxycyclopropan-1-yl)-6,6-diphenylhexanoic acid]",7000
8,"CC(N)(C(=O)O)C1CC1C(=O)O (stereo not drawn) [Example 8, 2SR- and 2RS-2-amino-2-(1SR,2SR-2-carboxycyclopropan-1-yl)propanoic acid, reference compound]",6200
9,"CCC(N)(C(=O)O)C1CC1C(=O)O (stereo not drawn) [Example 9, 2SR- and 2RS-2-amino-2-(1SR,2SR-2-carboxycyclopropan-1-yl)butanoic acid]",2200
10,"CCCC(N)(C(=O)O)C1CC1C(=O)O (stereo not drawn) [Example 10, 2SR- and 2RS-2-amino-2-(1SR,2SR-2-carboxycyclopropan-1-yl)pentanoic acid]",2100
11,"CCCCC(N)(C(=O)O)C1CC1C(=O)O (stereo not drawn) [Example 11, 2SR- and 2RS-2-amino-2-(1SR,2SR-2-carboxycyclopropan-1-yl)hexanoic acid]",1400
12,"CCCCCC(N)(C(=O)O)C1CC1C(=O)O (stereo not drawn) [Example 12, 2SR- and 2RS-2-amino-2-(1SR,2SR-2-carboxycyclopropan-1-yl)heptanoic acid]",1800
13,"NC(CCc1ccc(Cl)cc1)(C(=O)O)C1CC1C(=O)O (stereo not drawn) [Example 25, 2SR- and 2RS-2-amino-2-(1SR, 2SR-2-carboxycyclopropan-1-yl)-4-(4-chlorophenyl)butanoic acid]",410
14,"COc1ccccc1CCC(N)(C(=O)O)C1CC1C(=O)O (stereo not drawn) [Example 26, 2SR- and 2RS-2-amino-2-(1SR,2SR-2-carboxycyclopropan-1-yl) -4-(2-methoxyphenyl)butanoic acid]",170
15,"COc1cccc(CCC(N)(C(=O)O)C2CC2C(=O)O)c1 (stereo not drawn) [Example 27, 2SR- and 2RS-2-amino-2-(1SR,2SR-2-carboxycyclopropan-1-yl) -4-(3-methoxyphenyl)butanoic acid]",42
16,"COc1ccc(CCC(N)(C(=O)O)C2CC2C(=O)O)cc1 (stereo not drawn) [Example 28, 2SR- and 2RS-2-amino-2-(1SR,2SR-2-carboxycyclopropan-1-yl)-4-(4-methoxyphenyl)butanoic acid]",1400
17,"NC(CCc1ccccc1O)(C(=O)O)C1CC1C(=O)O (stereo not drawn) [Example 29, 2SR- and 2RS-2-amino-2-(1SR,2SR-2-carboxycyclopropan-1-yl)-4-(2-hydroxyphenyl)butanoic acid]",100
18,"NC(CCc1cccc(O)c1)(C(=O)O)C1CC1C(=O)O (stereo not drawn) [Example 30, 2SR- and 2RS-2-amino-2-(1SR,2SR-2-carboxycyclopropan-1-yl)-4-(3-hydroxyphenyl)butanoic acid]",80

row,SMILES,IC50 [nM]
1,"NC(CCc1ccc(O)cc1)(C(=O)O)C1CC1C(=O)O (stereo not drawn) [Example 31, 2SR- and 2RS-2-amino-2-(1SR,2SR-2-carboxycyclopropan-1-yl)-4-(4-hydroxyphenyl)butanoic acid]",300
2,"COc1ccc(OC)c(CCC(N)(C(=O)O)C2CC2C(=O)O)c1 (stereo not drawn) [Example 32, 2SR- and 2RS-2-amino-2-(1SR,2SR-2-carboxycyclopropan-1-yl)-4-(2,5-dimethoxyphenyl)butanoic acid]",170
3,"COc1ccc(CCC(N)(C(=O)O)C2CC2C(=O)O)cc1OC (stereo not drawn) [Example 33, 2SR- and 2RS-2-amino-2-(1SR,2SR-2-carboxycyclopropan-1-yl)-4-(3,4-dimethoxyphenyl)butanoic acid]",460
4,"CC(CC(N)(C(=O)O)C1CC1C(=O)O)c1ccccc1 (stereo not drawn) [Example 34, 2SR,5SR-, 2SR,5RS-, 2RS,5SR- and 2RS,5RS-2-amino-2-(1SR,2SR-2-carboxycyclopropan-1-yl)-4-methyl-4-phenylbutanoic acid]",120
5,NC(CCC12CC3CC(CC(C3)C1)C2)(C(=O)O)C1CC1C(=O)O (stereo not drawn) [Example 36],200
6,"NC(CCc1cccc(C(F)(F)F)c1)(C(=O)O)C1CC1C(=O)O (stereo not drawn) [Example 37, 2SR- and 2RS-2-amino-2-(1SR,2SR-2-carboxycyclopropan-1-yl)-4-(3-(trifluoromethyl)phenyl)butanoic acid]",64
7,"NC(CCc1cccc(Br)c1)(C(=O)O)C1CC1C(=O)O (stereo not drawn) [Example 38, 2SR- and 2RS-2-amino-2-(1SR,2SR-2-carboxycyclopropan-1-yl)-4-(3-bromophenyl)butanoic acid]",55
8,"NC(COc1ccccc1)(C(=O)O)C1CC1C(=O)O (stereo not drawn) [Example 39, 2SR- and 2RS-2-amino-2-(1SR,2SR-2-carboxycyclopropan-1-yl)-3-phenoxypropanoic acid]",11200
9,"NC(CC1CCC1)(C(=O)O)C1CC1C(=O)O (stereo not drawn) [Example 40, 2SR- and 2RS-2-amino-2-(1SR,2SR-2-carboxycyclopropan-1-yl)-3-cyclobutylpropanoic acid]",29500
10,"NC(CC1CCCC1)(C(=O)O)C1CC1C(=O)O (stereo not drawn) [Example 41, 2SR- and 2RS-2-amino-2-(1SR,2SR-2-carboxycyclopropan-1-yl)-3-cyclopentylpropanoic acid]",1400
11,"NC(CCC1CCCCC1)(C(=O)O)C1CC1C(=O)O (stereo not drawn) [Example 44, 2SR- and 2RS-2-amino-2-(1SR,2SR-2-carboxycyclopropan-1-yl)-4-(cyclohexyl)butanoic acid]",380
12,"NC(CC(c1ccc(Cl)cc1)c1ccc(Cl)cc1)(C(=O)O)C1CC1C(=O)O (stereo not drawn) [Example 46, 2SR- and 2RS-2-amino-2-(1SR,2SR-2-carboxycyclopropan-1-yl)-4,4-di(4,4'-dichloro)phenylbutanoic acid]",77
13,"NC(CCc1ccc(Cl)cc1Cl)(C(=O)O)C1CC1C(=O)O (stereo not drawn) [Example 47, 2SR- and 2RS-2-amino-2-(1SR,2SR-2-carboxycyclopropan-1-yl)-4-(2,4-dichlorophenyl)butanoic acid]",220
14,"NC(CCc1ccc(Cl)c(Cl)c1)(C(=O)O)C1CC1C(=O)O (stereo not drawn) [Example 48, 2SR- and 2RS-2-amino-2-(1SR,2SR-2-carboxycyclopropan-1-yl)-4-(3,4-dichlorophenyl)butanoic acid]",38
15,"N[C@@](CC(c1ccccc1)c1ccccc1)(C(=O)O)[C@H]1C[C@@H]1C(=O)O [Example 63, 2R 2-amino-2-(1S,2S-2-carboxycyclopropan-1-yl)-4,4-diphenylbutanoic acid]",2000
16,"N[C@](CC(c1ccccc1)c1ccccc1)(C(=O)O)[C@H]1C[C@@H]1C(=O)O [Example 64, 2S-2-amino-2-(1S,2S-2-carboxycyclopropan-1-yl)-4,4-diphenylbutanoic acid]",35 ± 5
17,"Cc1cccc(CCC(N)(C(=O)O)C2CC2C(=O)O)c1 [Example 68, 2S-2-amino-2-(1S,2S-2-carboxycyclopropan-1-yl)-4-(3-methylphenyl)butanoic acid]",12 ± 3
